From patent US6475985B1, “Nucleosides with antiviral and anticancer activity” (priority 1998, dated 2002)
pIC50: −log10 of the molar value. Like-named read-outs stand apart in the source and are kept apart here. Values belong to the compound of their own block, whether it stands above or below them.

Legend:
[1] = test system: CEM T-cell leukemia cells; assay: Test G: activity against CEM T-cell leukemia cells; format: cell-based
Procedure: (§1) The activity of representative compounds of formula VII against MCF-7 breast cancer cells and CEM T-cell leukemia cells were determined using a procedure similar to that described by C. R. Wagner, et al. Cancer Research, 1997, 57, 2341-2345.

[2] = test system: MCF-7 breast cancer cells; assay: Test G: activity against MCF-7 breast cancer cells; format: cell-based
Procedure: as §1

HIV-1 = assay: Test A: antiviral activity against HIV-1 isolates and laboratory strain in peripheral blood lymphocytes; format: cell-based; conditions: Human immunodeficiency virus 1, Lymphocyte, read-out: Mean IC50 in PBLs
Procedure: (§2) The antiviral activity of representative compounds of the invention was determined with matched HIV-1 isolates and a laboratory HIV-1 strain as previously described (D. L. Mayers et al., Proc. Natl. Acad. Sci., USA 1995, 92, 215-219; and C. R. Wagner et al., Bioorganic and Medicinal Chemistry Letters, 1995, 5, 1819-1824).

PBMCs = conditions: human
Procedure: as §2

[3] = Test F: stability in human plasma; format: in vitro ADME; conditions: 37 C
in vitro = conditions: cell media

Compound: COC(=O)[C@H](Cc1c[nH]c2ccccc12)NP(=O)(O)OC[C@H]1O[C@@H](n2cc(F)c(=O)[nH]c2=O)C[C@@H]1O [Compound 37, 5-fluoro-2′deoxy-5′-uridyl N-((L)-1-carbomethoxy-2-indol-3-ylethyl)phosphoramidate]
Half-life Cell Media 37 C: >48 h
CC50 [1]: 0.32 µM
CC50 [2]: 0.025 µM

Compound: Nc1nccc2c1ncn2[C@@H]1O[C@H](CO)[C@@H](O)[C@H]1O [DZA, 3-deaza adenosine, reference compound]
pIC50 (HIV-1; HIV-1 isolate A012 post-AZT): 6.78
pIC50 (HIV-1; HIV-1 isolate A012 pre-AZT): 6.84
CC80 (PBMCs): 1 µM

half-life [3]: 0.0833 to 0.167 h
half-life (in vitro): > 48 h
Compound: O=c1[nH]c(=O)n([C@H]2C[C@H](O)[C@@H](CO)O2)cc1F [FUdR, 5-fluorodeoxyuridine, reference compound]
CC50 ([1]; T-cell): 0.001 µM
CC50 ([2]; Homo sapiens, MCF7): 11 µM
